Experimental data as given in article PMC4876117, “Functional Dissection of the Bipartite Active Site of the Class I Coenzyme A (CoA)-Transferase Succinyl-CoA:Acetate CoA-Transferase” (Frontiers in Chemistry, 2016).

How the values were obtained:
AarC (AarCH6) [1] = target: T1, AarC (AarCH6) (Acetobacter aceti, UniProt B3EY95); test: X-ray crystallography (co-crystal); format: binding; conditions: sodium citrate, imidazole pH 8.2, 22 °C
T1 construct: C-terminal hexahistidine tag kept, plasmid pJK385 (N347A: pJK524), expressed in E. coli C41(DE3) pREP4-groESL, homodimer

AarC (AarCH6) [2] = target: T2, AarC (AarCH6) (Acetobacter aceti, UniProt B3EY95, N347A); test: X-ray crystallography (co-crystal); format: binding; conditions: 10 mM CoA, sodium citrate, imidazole pH 8.2, 22 °C; 2.13 Å; active site
T2 construct: C-terminal hexahistidine tag kept, plasmid pJK385 (N347A: pJK524), expressed in E. coli C41(DE3) pREP4-groESL, homodimer
T2 sequence (B3EY95 whole entry N347A): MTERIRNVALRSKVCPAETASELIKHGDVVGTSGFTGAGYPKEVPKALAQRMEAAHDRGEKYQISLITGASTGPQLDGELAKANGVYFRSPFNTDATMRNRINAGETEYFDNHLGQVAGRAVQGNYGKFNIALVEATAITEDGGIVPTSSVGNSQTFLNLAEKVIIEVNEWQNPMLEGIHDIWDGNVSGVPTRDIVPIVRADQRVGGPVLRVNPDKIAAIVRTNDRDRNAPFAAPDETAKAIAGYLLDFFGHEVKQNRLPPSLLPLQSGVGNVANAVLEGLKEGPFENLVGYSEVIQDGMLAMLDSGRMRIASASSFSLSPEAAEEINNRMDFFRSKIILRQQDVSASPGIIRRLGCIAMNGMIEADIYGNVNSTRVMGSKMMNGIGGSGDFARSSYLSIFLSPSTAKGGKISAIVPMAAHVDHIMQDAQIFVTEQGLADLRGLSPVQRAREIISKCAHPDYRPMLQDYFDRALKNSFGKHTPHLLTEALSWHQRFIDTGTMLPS

CCCNC(=O)CCNC(=O)[C@H](O)C(C)(C)COP(=O)(O)OP(=O)(O)OC[C@H]1O[C@@H](n2cnc3c(N)ncnc32)[C@H](O)[C@@H]1OP(=O)(O)O [2a, 3′-phosphoadenosine 5′-(O-(N-propyl-R-pantothenamide))pyrophosphate]
X-ray crystallography (co-crystal) (AarC (AarCH6) [1]; 1-3 mM 2a, 1.66 Å, active site, 5dw6 is the complex with added acetate (1.55 Å)): The AarC•2a complex (PDB entry 5dw5) contained three chloride ions

CC(C)(COP(=O)(O)OP(=O)(O)OC[C@H]1O[C@@H](n2cnc3c(N)ncnc32)[C@H](O)[C@@H]1OP(=O)(O)O)[C@@H](O)C(=O)NCCC(=O)NCCS [CoA]
X-ray crystallography (co-crystal) (AarC (AarCH6) [2]): The B subunits of AarC-N347A (PDB entry 5ddk, white carbon atoms)

CC(=O)O [acetate]
X-ray crystallography (co-crystal) (AarC (AarCH6) [1]; 1-50 mM sodium acetate, 1.62 Å, three sites per subunit, the first near the active site, also in 5dw6 with 2a): The final model contained three acetate binding sites in each subunit
